These results are taken from patent publication US20030148285A1, “Mammalian SIMP protein, gene sequence and uses thereof in cancer therapy” (priority 2001, published 2003).

Assay [1] deals with B6^dom1-specific T-cells (C3H.SW target cells coated with synthetic peptides). The settings on record: previously shown; cited from earlier work.
The test system is the same in assay [2]. Put plainly: 51Cr release cytotoxicity assay: peptide recognition by C3H.SW anti-C57BL/6 CTLs. The following applies: effector to target ratio 50:1, FIG. 1. The assay is classed as cell-based, mouse. How it is done: Cytotoxic activity was assessed in a standard ^51Cr release assay (Pion et al., 1997. Eur. J. Immunol. 27:421-430). Target blast cells, prepared by culturing C3H.SW spleen cells (3×10^6/ml) with 5 μg/ml of Concanavalin A (Con A; Sigma Chemical Co., St-Louis, Mo.) for 48 hours, were labeled with 100 μCi Na2^51Cr (Dupont Co., Wilmington, Del.) for 90 minutes, sensitized with synthetic peptides for 90 minutes, then mixed with C3H.SW anti-C57BL/6 effector cells at a 50:1 effector to target ratio. Cells were then incubated for 4 hours at 37° C. in a humidified atmosphere of 5% CO2. Afterwards, supernatants were harvested and counted in a gamma counter. All tests were done in triplicate. Spontaneous release was below 15%. Results are expressed as a percentage of specific lysis calculated as follows: % specific lysis=100×(experimental release−spontaneous release)/(maximum release−spontaneous release).

For the sequence AAPDNRETF, the “Recognition by B6^dom1-specific T-cells” value in assay [1] is recorded as “recognised by B6^dom1-specific T-cells”.

On to “KAPDNRDTL [synthetic peptide; product of the putative B6^dom1 allele found in B6^dom1− strains of mice]”, for which, in assay [2] (peptide even at 10^−5 M), the “Recognition by B6^dom1-specific CTLs (specific lysis of peptide-coated C3H.SW targets)” value was “not recognised”.

On to KAPDNRETL [synthetic peptide], for which the “Recognition by B6^dom1-specific CTLs (specific lysis of peptide-coated C3H.SW targets)” value in assay [2] (peptide at 10^−8 M) was “recognised more efficiently than the AAPDNRETF peptide”.
